In PubChem BioAssay AID328 (DTP/NCI, 2004):
Where “and” joins values, the source holds several entries; their conditions need not be identical. Identical values can stand only once. Toxic doses and inconclusive results are not listed.

Test system: BDF1 mice, P388 leukemia ip, median survival T/C
Experiment: NCI In Vivo Anticancer Drug Screen. Data for tumor model P388 Leukemia (intraperitoneal) in B6D2F1 (BDF1) mice
Settings: endpoint: median survival time, higher = longer survival
Procedure, shortened: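 In tumour-bearing mice, survival after compound treatment is set against the vehicle group and given as a quotient.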

[1] = dose: 100.0 mg/kg/injection, schedule: Q01DX001 (ip), vehicle: Klucel (hydroxypropylcellulose) (HPC)
[2] = dose: 200.0 mg/kg/injection, schedule: Q01DX001 (ip), vehicle: Klucel (hydroxypropylcellulose) (HPC)
[3] = dose: 400.0 mg/kg/injection, schedule: Q01DX001 (ip), vehicle: Klucel (hydroxypropylcellulose) (HPC)
[4] = dose: 100.0 mg/kg/injection, schedule: Q04DX003 (ip), vehicle: saline with Tween-80
[5] = dose: 200.0 mg/kg/injection, schedule: Q04DX003 (ip), vehicle: saline with Tween-80
[6] = dose: 400.0 mg/kg/injection, schedule: Q04DX003 (ip), vehicle: saline with Tween-80
[7] = dose: 50.0 mg/kg/injection, schedule: Q01DX009 (ip), vehicle: saline
[8] = dose: 100.0 mg/kg/injection, schedule: Q01DX009 (ip), vehicle: saline
[9] = dose: 200.0 mg/kg/injection, schedule: Q01DX009 (ip), vehicle: saline
[10] = dose: 50.0 mg/kg/injection, schedule: Q01DX009 (ip), vehicle: saline with Tween-80
[11] = dose: 100.0 mg/kg/injection, schedule: Q01DX009 (ip), vehicle: saline with Tween-80
[12] = dose: 200.0 mg/kg/injection, schedule: Q01DX009 (ip), vehicle: saline with Tween-80
[13] = dose: 400.0 mg/kg/injection, schedule: Q01DX009 (ip), vehicle: saline with Tween-80
[14] = dose: 100.0 mg/kg/injection, schedule: Q04DX003 (ip), vehicle: saline
[15] = dose: 200.0 mg/kg/injection, schedule: Q04DX003 (ip), vehicle: saline
[16] = dose: 400.0 mg/kg/injection, schedule: Q01DX009 (ip), vehicle: saline
[17] = dose: 400.0 mg/kg/injection, schedule: Q04DX003 (ip), vehicle: saline
[18] = dose: 100.0 mg/kg/injection, schedule: Q04DX003 (ip), vehicle: Klucel (hydroxypropylcellulose) (HPC)
[19] = dose: 100.0 mg/kg/injection, schedule: Q01DX001 (ip), vehicle: saline with Tween-80
[20] = dose: 200.0 mg/kg/injection, schedule: Q01DX001 (ip), vehicle: saline with Tween-80
[21] = dose: 400.0 mg/kg/injection, schedule: Q01DX001 (ip), vehicle: saline with Tween-80
[22] = dose: 15.0 mg/kg/injection, schedule: Q01DX009 (ip), vehicle: saline with Tween-80
[23] = dose: 30.0 mg/kg/injection, schedule: Q01DX009 (ip), vehicle: saline with Tween-80
[24] = dose: 100.0 mg/kg/injection, schedule: Q01DX001 (ip), vehicle: saline
[25] = dose: 200.0 mg/kg/injection, schedule: Q01DX001 (ip), vehicle: saline

In the case of `NC(=O)N/N=C1/CCCC(C(=O)O)C1` (centres undefined), the T/C (dose: 50.0 mg/kg/injection, schedule: Q01DX001 (ip), vehicle: Klucel (hydroxypropylcellulose) (HPC)) is reported as 91 % of control, the T/C [1] is reported as 116 % of control and the T/C [2] is reported as 91 % of control. The T/C [3] was 95 % of control.

`O=C1N=C2C=CC=CN2C(=O)C1Cc1ccccc1` (centres undefined) was tested, and the T/C [4] was 96 % of control, the T/C [5] was 100 % of control and the T/C [6] was 104 % of control.

For `CN(C)N/C=N/S(C)(=O)=O`, the T/C [7] was 101 % of control, the T/C [8] was 101 % of control and the T/C [9] was 109 % of control.

With `CN=C(N)c1ccc(N=C(N)c2ccc(N=C(N)c3ccc(N)cc3)cc2)cc1` the T/C (dose: 16.0 mg/kg/injection, schedule: Q01DX009 (ip), vehicle: saline) was 227 % of control, the T/C (dose: 25.0 mg/kg/injection, schedule: Q01DX009 (ip), vehicle: saline) was 245 % of control and the T/C (dose: 35.0 mg/kg/injection, schedule: Q01DX009 (ip), vehicle: saline) was 195 % of control.

`O=C(NC(CO)C(O)c1ccc([N+](=O)[O-])cc1)C(Cl)Cl` (centres undefined) was tested, and the T/C [4] was 104 % of control, the T/C [5] was 100 % of control and the T/C [6] was 109 % of control.

For `O=C(NC1CCOC1=O)OCc1ccccc1` (centres undefined), the T/C [10] was 100 % of control, the T/C [11] was 100 % of control and the T/C [12] was 100 % of control. The T/C [13] was 98 % of control.

In the case of `O=S(=O)(Nc1ccccc1)c1ccc(C2CC3(Cl)C(Cl)=C(Cl)C2(Cl)C3(Cl)Cl)cc1` (centres undefined), the T/C [4] is reported as 91 % of control, the T/C [5] is reported as 91 % of control and the T/C [6] is reported as 91 % of control.

In the case of `O.O=C(O)O.O=C(O)O.O=C(O)O.[Zr]`, the T/C [8] is reported as 96 % of control, the T/C [14] is reported as 100 % of control and the T/C [9] is reported as 96 % of control. For the same molecule, the T/C [15] was 100 % of control, the T/C [16] was 96 % of control and the T/C [17] was 95 % of control.

`COc1ccc(C2C=C(c3ccc4c(c3)OCO4)Oc3c2c(=O)oc2ccccc32)cc1OC` (centres undefined) was tested, and the T/C (dose: 12.5 mg/kg/injection, schedule: Q01DX009 (ip), vehicle: water) was 99 % of control, the T/C (dose: 25.0 mg/kg/injection, schedule: Q01DX009 (ip), vehicle: water) was 94 % of control and the T/C (dose: 25.0 mg/kg/injection, schedule: Q04DX003 (ip), vehicle: water) was 94 % of control. The T/C (dose: 50.0 mg/kg/injection, schedule: Q01DX009 (ip), vehicle: water) was 94 % of control, the T/C (dose: 50.0 mg/kg/injection, schedule: Q04DX003 (ip), vehicle: water) was 101 % of control and the T/C (dose: 100.0 mg/kg/injection, schedule: Q01DX009 (ip), vehicle: water) was 99 % of control. For the same molecule, the T/C (dose: 100.0 mg/kg/injection, schedule: Q04DX003 (ip), vehicle: water) was 97 % of control, the T/C (dose: 200.0 mg/kg/injection, schedule: Q01DX009 (ip), vehicle: water) was 94 % of control and the T/C (dose: 200.0 mg/kg/injection, schedule: Q04DX003 (ip), vehicle: water) was 110 % of control. The T/C (dose: 400.0 mg/kg/injection, schedule: Q04DX003 (ip), vehicle: water) was 106 % of control.

With `CC(=O)c1cnn(-c2ccccc2)c1C` the T/C [1] was 104 % of control, the T/C (dose: 100.0 mg/kg/injection, schedule: Q01DX009 (ip), vehicle: other) was 105 % of control and the T/C [18] was 104 % of control. The T/C [2] was 109 % of control, the T/C (dose: 200.0 mg/kg/injection, schedule: Q01DX009 (ip), vehicle: other) was 100 % of control and the T/C (dose: 200.0 mg/kg/injection, schedule: Q04DX003 (ip), vehicle: Klucel (hydroxypropylcellulose) (HPC)) was 86 % of control. For the same molecule, the T/C [3] was 109 % of control, the T/C (dose: 400.0 mg/kg/injection, schedule: Q01DX009 (ip), vehicle: other) was 100 % of control and the T/C (dose: 400.0 mg/kg/injection, schedule: Q04DX003 (ip), vehicle: Klucel (hydroxypropylcellulose) (HPC)) was 90 % of control.

`CC(C)(C)S(=O)(=O)CC(=O)Nc1ccccc1` was tested, and the T/C [19] was 96 % of control, the T/C [20] was 101 % of control and the T/C [21] was 96 % of control.

For `NC(=S)N/N=C\c1nccc2c(C(F)(F)C(F)(F)C(F)(F)F)cccc12`, the T/C [4] was 110 % of control, the T/C [5] was 98 % of control and the T/C [6] was 88 % of control.

`COc1ccc(N=Cc2ccc3c(c2)OCO3)cc1` was tested, and the T/C [10] was 98 % of control, the T/C [11] was 100 % of control and the T/C [12] was 105 % of control. The T/C [13] was 98 % of control.

In the case of `ClC(Cl)(Cl)C(Cl)(Cl)c1ccc(C(Cl)(Cl)C(Cl)(Cl)Cl)cc1`, the T/C (dose: 18.75 mg/kg/injection, schedule: Q01DX009 (ip), vehicle: saline with Tween-80) is reported as 100 % of control, the T/C (dose: 37.5 mg/kg/injection, schedule: Q01DX009 (ip), vehicle: saline with Tween-80) is reported as 100 % of control and the T/C (dose: 75.0 mg/kg/injection, schedule: Q01DX009 (ip), vehicle: saline with Tween-80) is reported as 100 % of control. The T/C (dose: 100.0 mg/kg/injection, schedule: Q04DX003 (ip), vehicle: saline sonified) was 100 % of control, the T/C [12] was 92 % of control and the T/C (dose: 400.0 mg/kg/injection, schedule: Q04DX003 (ip), vehicle: saline sonified) was 95 % of control.

With `Cc1c(CO)[nH]c(=S)[nH]c1=O` the T/C [1] was 90 % of control, the T/C [2] was 104 % of control and the T/C [3] was 95 % of control.

For `Cc1cc(N(CCCl)CCCl)ccc1N=Nc1ccccc1C(=O)O`, the T/C (dose: 5.0 mg/kg/injection, schedule: Q01DX010 (ip), vehicle: saline) was 150 % of control, the T/C (dose: 10.0 mg/kg/injection, schedule: Q01DX010 (ip), vehicle: saline) was 175 % of control and the T/C (dose: 20.0 mg/kg/injection, schedule: Q01DX010 (ip), vehicle: saline) was 210 % of control. The T/C (dose: 40.0 mg/kg/injection, schedule: Q01DX010 (ip), vehicle: saline) was 95 % of control.

With `COc1ccc(C=C2c3ccccc3-c3ccccc32)cc1` the T/C [19] was 100 % of control, the T/C [20] was 95 % of control and the T/C [21] was 100 % of control.

With `O=C(NCc1cnccn1)c1ccccc1Cl` the T/C [4] was 92 % of control, the T/C [5] was 104 % of control and the T/C [6] was 100 % of control.

In the case of `CNC(=S)N/N=C\C(=N/NC(=S)NC)c1ccco1`, the T/C [22] is reported as 100 % of control and the T/C [23] is reported as 98 % of control.

With `CC[n+]1ccc(Cc2ccc([N+](=O)[O-])cc2)cc1` the T/C (dose: 25.0 mg/kg/injection, schedule: Q01DX009 (ip), vehicle: Klucel (hydroxypropylcellulose) (HPC)) was 104 % of control and 119 % of control, the T/C (dose: 25.0 mg/kg/injection, schedule: Q04DX003 (ip), vehicle: Klucel (hydroxypropylcellulose) (HPC)) was 100 % of control and the T/C (dose: 50.0 mg/kg/injection, schedule: Q01DX009 (ip), vehicle: Klucel (hydroxypropylcellulose) (HPC)) was 109 % of control. The T/C (dose: 50.0 mg/kg/injection, schedule: Q04DX003 (ip), vehicle: Klucel (hydroxypropylcellulose) (HPC)) was 100 % of control and the T/C [18] was 100 % of control.

`O=c1[nH]cnc2c1ncn2C1OC(CF)C(O)C1O` (centres undefined) was tested, and the T/C [24] was 108 % of control, the T/C [8] was 86 % of control and the T/C [25] was 108 % of control. The T/C [9] was 91 % of control, the T/C (dose: 400.0 mg/kg/injection, schedule: Q01DX001 (ip), vehicle: saline) was 108 % of control and the T/C [16] was 86 % of control.

`O=S1(=O)C=C(Cl)C2C3CC(C(Cl)C3Cl)C21` (centres undefined) was tested, and the T/C (dose: 7.5 mg/kg/injection, schedule: Q01DX009 (ip), vehicle: saline with Tween-80) was 100 % of control, the T/C [22] was 113 % of control and the T/C [23] was 104 % of control.

For `Cc1cc2c3ccccc3ncn2n1`, the T/C [24] was 100 % of control, the T/C (dose: 100.0 mg/kg/injection, schedule: Q01DX009 (ip), vehicle: Klucel (hydroxypropylcellulose) (HPC)) was 100 % of control and the T/C [14] was 100 % of control. The T/C [25] was 108 % of control, the T/C (dose: 200.0 mg/kg/injection, schedule: Q01DX009 (ip), vehicle: Klucel (hydroxypropylcellulose) (HPC)) was 108 % of control and the T/C [15] was 100 % of control. The T/C [17] was 100 % of control.

With `N=Cc1c(O)[nH]c(=O)[nH]c1=O` the T/C [8] was 109 % of control, the T/C [14] was 92 % of control and the T/C [9] was 109 % of control. For the same molecule, the T/C [15] was 107 % of control, the T/C [16] was 118 % of control and the T/C [17] was 92 % of control.

`N/C(=N/N=C/c1ccncc1)N[N+](=O)[O-]` was tested, and the T/C [7] was 90 % of control.

With `CCC(C)C1(C)OC1C(=O)OC` (centres undefined) the T/C [12] was 107 % of control and the T/C [13] was 107 % of control.
